Activity calls are given as the source filed them. The rule behind the calls is not given here.
Legend:
786-0 = test: Antiproliferative activity against human 786-0 cells assessed as cell growth inhibition measured for 72 hrs by MTT assay; assay type: functional, cell-based; conditions: 786-0, 72 h
4T1 [1] = test: Antiproliferative activity against mouse 4T1 cells expressing SiHK2 assessed as cell growth inhibition measured for 72 hrs by MTT assay; assay type: functional, cell-based
[2] = molecular target: T1, Hexokinase-2 (Homo sapiens) (UniProt P52789); test: Induction of HK2 degradation in human MDA-MB-231 cells measured for 36 hrs by confocal microscopic analysis; assay type: cell-based; conditions: dose 2.0 µM
T1 sequence (whole entry): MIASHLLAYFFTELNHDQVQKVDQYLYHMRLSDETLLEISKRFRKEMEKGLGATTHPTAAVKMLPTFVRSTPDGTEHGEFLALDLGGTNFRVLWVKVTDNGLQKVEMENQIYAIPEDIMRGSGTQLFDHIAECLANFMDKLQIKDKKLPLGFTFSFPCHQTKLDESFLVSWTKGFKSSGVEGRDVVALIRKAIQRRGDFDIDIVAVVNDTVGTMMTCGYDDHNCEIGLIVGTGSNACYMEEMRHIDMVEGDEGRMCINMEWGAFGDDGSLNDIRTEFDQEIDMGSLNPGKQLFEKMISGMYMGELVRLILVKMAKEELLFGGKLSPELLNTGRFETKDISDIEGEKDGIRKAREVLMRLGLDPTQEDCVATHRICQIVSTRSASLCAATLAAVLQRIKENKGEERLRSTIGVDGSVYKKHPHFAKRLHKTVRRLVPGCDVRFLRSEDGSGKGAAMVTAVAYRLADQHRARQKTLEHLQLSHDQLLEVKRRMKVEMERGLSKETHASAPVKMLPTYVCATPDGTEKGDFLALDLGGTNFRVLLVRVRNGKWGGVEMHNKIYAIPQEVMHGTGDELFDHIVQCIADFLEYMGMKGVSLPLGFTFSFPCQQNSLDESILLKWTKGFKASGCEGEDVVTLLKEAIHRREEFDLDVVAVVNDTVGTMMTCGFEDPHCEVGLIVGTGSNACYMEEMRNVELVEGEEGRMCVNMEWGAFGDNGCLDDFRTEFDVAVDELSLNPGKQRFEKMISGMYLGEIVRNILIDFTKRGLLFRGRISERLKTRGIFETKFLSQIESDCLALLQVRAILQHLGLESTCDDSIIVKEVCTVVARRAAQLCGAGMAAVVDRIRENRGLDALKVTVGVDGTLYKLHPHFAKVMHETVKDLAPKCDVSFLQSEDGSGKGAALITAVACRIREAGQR

[3] = molecular target: T2, Protein cereblon/Hexokinase-2 (Mus musculus) (UniProt O08528+Q8C7D2); test: PROTAC activity at CRBN/HK2 in mouse 4T1 cells assessed as […] ternary complex formation at 10 uM incubated for 24 hrs; assay type: cell-based
[4] = molecular target: T2, Protein cereblon/Hexokinase-2 (Mus musculus); test: PROTAC activity at CRBN/HK2 in mouse 4T1 cells assessed as […] ternary complex formation at 10 uM incubated for 24 hrs in presence of MG132; assay type: cell-based
[5] = molecular target: Protein cereblon/Hexokinase-2 (Homo sapiens) (UniProt P52789+Q96SW2); test: PROTAC activity at CRBN/HK2 in human MDA-MB-231 cells assessed as HK2 degradation at 20 uM incubated for 36 hrs; assay type: cell-based
4T1 [6] = test: Induction of mitochondrial damage in mouse 4T1 cells assessed as reduction in LDH level at 20 uM measured for 36 hrs; assay type: functional, cell-based
[7] = molecular target: T1, Hexokinase-2 (Homo sapiens); test: Induction of HK2 degradation in human MDA-MB-231 cells assessed as increase in Bax expression at 20 uM measured for 36 hrs by Western blot analysis; assay type: cell-based
MDA-MB-231 [8] = test: Induction of pyroptosis in human MDA-MB-231 cells assessed as decrease in full length caspase-3 level at 20 uM incubated for 36 hrs by Western blot analysis; assay type: functional, cell-based
4T1 [9] = test: Antitumor immunity against mouse 4T1 cells implanted in BALB/c mouse model assessed as accumulation of CRT at 20 uM measured for 36 hrs by ELISA analysis; assay type: functional, cell-based
[10] = Toxicity in BALB/c mouse implanted with mouse 4T1 cells assessed as change in corpuscular hemoglobin concentration at 50 mg/kg, ip measured after 25 days by routine blood test; assay type: organism-based; conditions: in vivo, 600 h, time 25 day
[11] = Toxicity in BALB/c mouse implanted with mouse 4T1 cells assessed as effect on corpuscular volume at 50 mg/kg, ip measured after 25 days by routine blood test; assay type: organism-based; conditions: in vivo, 600 h, time 25 day
4T1 [12] = test: Antitumor activity against mouse 4T1 cells implanted in BALB/c mouse model assessed as nucleus damage at 50 mg/kg, ip measured after 25 days by TUNEL staining based analysis; assay type: functional, organism-based; conditions: time 25.0 day
4T1 [13] = test: Antitumor immunity against mouse 4T1 cells implanted in BALB/c mouse model assessed as upregulation of Il-1beta expression in mouse tumor by ELISA analysis; assay type: functional, cell-based
4T1 [14] = test: Antitumor immunity against mouse 4T1 cells implanted in BALB/c mouse model assessed as downregulation of TGF-beta expression in mouse tumor by ELISA analysis; assay type: functional, cell-based
4T1 [15] = test: Antitumor immunity against mouse 4T1 cells implanted in BALB/c mouse model assessed as increase in CRT accumulation in tumor; assay type: functional, cell-based
[16] = Toxicity in BALB/c nude mouse xenografted with human MDA-MB-231 cells assessed as effect on hemoglobin level at 50 mg/kg, ip measured after 30 days by routine blood test; assay type: organism-based; conditions: in vivo, 720 h, time 30 day
[17] = Toxicity in BALB/c nude mouse xenografted with human MDA-MB-231 cells assessed as effect on mean corpuscular hemoglobin at 50 mg/kg, ip measured after 30 days by routine blood test; assay type: organism-based; conditions: in vivo, 720 h, time 30 day
[18] = Toxicity in BALB/c nude mouse xenografted with human MDA-MB-231 cells assessed as body weight loss at 50 mg/kg, ip measured after 30 days; assay type: organism-based; conditions: in vivo, 720 h, time 30 day
MDA-MB-231 [19] = test: Antitumor activity against human MDA-MB-231 cells xenografted in BALB/c nude mouse assessed as increase in N-terminal GSDME level at 50 mg/kg, ip measured after 28 days; assay type: functional, organism-based; conditions: time 28.0 day
[20] = Toxicity in BALB/c mouse implanted with mouse 4T1 cells assessed as effect on mean corpuscular volume at 50 mg/kg, ip measured after 25 days in presence of cisplatin by routine blood test; assay type: organism-based; conditions: in vivo, 600 h, time 25 day

T2 sequence (O08528 whole entry, looked up): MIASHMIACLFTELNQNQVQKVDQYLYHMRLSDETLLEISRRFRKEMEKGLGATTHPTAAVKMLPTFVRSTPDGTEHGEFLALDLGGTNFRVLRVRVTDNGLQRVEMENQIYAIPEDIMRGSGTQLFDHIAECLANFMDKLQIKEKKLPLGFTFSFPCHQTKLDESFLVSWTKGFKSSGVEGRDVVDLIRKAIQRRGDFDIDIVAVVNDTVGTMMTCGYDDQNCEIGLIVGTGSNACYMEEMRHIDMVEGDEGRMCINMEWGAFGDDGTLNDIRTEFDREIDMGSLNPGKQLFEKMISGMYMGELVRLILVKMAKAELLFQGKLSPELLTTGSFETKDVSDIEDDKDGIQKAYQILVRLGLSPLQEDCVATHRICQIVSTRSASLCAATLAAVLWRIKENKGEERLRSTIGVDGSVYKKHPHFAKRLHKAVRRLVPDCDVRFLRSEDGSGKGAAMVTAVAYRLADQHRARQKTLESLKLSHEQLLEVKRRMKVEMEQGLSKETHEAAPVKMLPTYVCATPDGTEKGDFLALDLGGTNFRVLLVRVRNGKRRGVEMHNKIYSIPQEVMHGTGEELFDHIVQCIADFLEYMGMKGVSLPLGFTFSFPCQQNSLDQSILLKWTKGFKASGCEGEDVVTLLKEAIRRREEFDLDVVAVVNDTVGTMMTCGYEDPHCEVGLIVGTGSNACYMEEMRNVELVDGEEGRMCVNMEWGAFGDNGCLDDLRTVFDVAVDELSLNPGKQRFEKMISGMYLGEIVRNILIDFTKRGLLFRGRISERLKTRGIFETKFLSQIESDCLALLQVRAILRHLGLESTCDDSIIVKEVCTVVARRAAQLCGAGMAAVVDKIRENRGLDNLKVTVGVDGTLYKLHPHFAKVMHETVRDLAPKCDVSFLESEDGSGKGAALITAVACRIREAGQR
T2 sequence (Q8C7D2 whole entry, looked up): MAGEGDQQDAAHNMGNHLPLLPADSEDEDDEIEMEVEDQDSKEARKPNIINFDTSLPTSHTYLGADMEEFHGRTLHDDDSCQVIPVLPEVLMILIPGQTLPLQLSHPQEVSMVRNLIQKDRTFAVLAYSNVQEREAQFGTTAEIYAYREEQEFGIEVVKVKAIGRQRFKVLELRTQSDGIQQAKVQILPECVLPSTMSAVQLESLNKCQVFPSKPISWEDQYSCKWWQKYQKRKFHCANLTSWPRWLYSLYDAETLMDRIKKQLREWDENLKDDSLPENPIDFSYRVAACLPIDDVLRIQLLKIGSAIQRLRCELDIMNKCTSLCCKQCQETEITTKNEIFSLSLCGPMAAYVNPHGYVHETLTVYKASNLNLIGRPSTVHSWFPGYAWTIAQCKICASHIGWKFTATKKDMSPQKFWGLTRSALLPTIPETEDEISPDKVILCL
Sequence of Protein cereblon/Hexokinase-2 (Homo sapiens) (Q96SW2 whole entry, looked up, one chain of several): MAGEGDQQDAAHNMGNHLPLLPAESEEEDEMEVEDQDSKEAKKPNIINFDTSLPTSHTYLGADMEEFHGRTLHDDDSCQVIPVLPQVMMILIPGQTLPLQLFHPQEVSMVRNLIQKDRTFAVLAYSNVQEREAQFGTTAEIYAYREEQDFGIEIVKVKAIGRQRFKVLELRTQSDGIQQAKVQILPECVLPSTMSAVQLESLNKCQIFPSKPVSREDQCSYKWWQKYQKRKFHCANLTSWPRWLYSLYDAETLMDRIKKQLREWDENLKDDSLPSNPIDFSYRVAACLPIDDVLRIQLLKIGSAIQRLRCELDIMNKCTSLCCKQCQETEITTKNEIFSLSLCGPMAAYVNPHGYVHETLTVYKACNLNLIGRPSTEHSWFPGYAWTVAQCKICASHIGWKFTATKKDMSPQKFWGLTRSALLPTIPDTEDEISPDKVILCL

SMILES: O=C1CCC(N2C(=O)c3cccc(NCCCCNC(=O)c4nn(Cc5ccc(Cl)cc5Cl)c5ccccc45)c3C2=O)C(=O)N1 (stereo unspecified)
- IC50 (786-0): 34.1 µM
- Activity (4T1 [1]): inactive
- Activity [2]: Dose-Dependent Effect
- Activity [3]: Active
- Activity [4]: inactive
- Activity [5]: Active
- Activity (4T1 [6]): Active
- Activity [7]: Active
- Activity (MDA-MB-231 [8]): Active
- Activity (4T1 [9]): Active
- Activity [10]: Non-Toxic
- Activity [11]: Non-Toxic
- Activity (4T1 [12]): Active
- Activity (4T1 [13]): Active
- Activity (4T1 [14]): Active
- Activity (4T1 [15]): Active
- Activity [16]: Non-Toxic
- Activity [17]: Non-Toxic
- Activity [18]: Non-Toxic
- Activity (MDA-MB-231 [19]): Active
- Activity [20]: Non-Toxic

From ChEMBL document CHEMBL5331124, “Degradation of Hexokinase 2 Blocks Glycolysis and Induces GSDME-Dependent Pyroptosis to Amplify Immunogenic Cell Death for Breast Cancer Therapy” (J Med Chem, 2023)
